Source: ChEMBL document CHEMBL2202954, “The effect of PLC-γ2 inhibitors on the growth of human tumour cells” (2012)

Key:
Format in all cases: functional
MDA-MB-468 = experiment: Cytotoxicity against human MDA-MB-468 cells assessed as cellular growth at 10 uM by SRB assay
MCF7 = experiment: Cytotoxicity against human MCF7 cells assessed as cellular growth at 10 uM by SRB assay
TK-10 = experiment: Cytotoxicity against human TK10 cells assessed as cellular growth at 10 uM by SRB assay
ACHN = experiment: Cytotoxicity against human ACHN cells assessed as cellular growth at 10 uM by SRB assay
CAKI-1 = experiment: Cytotoxicity against human Caki1 cells assessed as cellular growth at 10 uM by SRB assay
[1] = Cytotoxicity against human NCI-ADR-RES cells assessed as cellular growth at 10 uM by SRB assay
OVCAR-3 = experiment: Cytotoxicity against human OVCAR3 cells assessed as cellular growth at 10 uM by SRB assay
SNB-75 = experiment: Cytotoxicity against human SNB75 cells assessed as cellular growth at 10 uM by SRB assay
SF-268 = experiment: Cytotoxicity against human SF268 cells assessed as cellular growth at 10 uM by SRB assay
SW-620 = experiment: Cytotoxicity against human SW620 cells assessed as cellular growth at 10 uM by SRB assay
HCT-15 = experiment: Cytotoxicity against human HCT15 cells assessed as cellular growth at 10 uM by SRB assay
HCC 2998 = experiment: Cytotoxicity against human HCC2998 cells assessed as cellular growth at 10 uM by SRB assay
NCI-H522 = experiment: Cytotoxicity against human NCI-H522 cells assessed as cellular growth at 10 uM by SRB assay
NCI-H460 = experiment: Cytotoxicity against human NCI-H460 cells assessed as cellular growth at 10 uM by SRB assay
NCI-H226 = experiment: Cytotoxicity against human NCI-H226 cells assessed as cellular growth at 10 uM by SRB assay
NCI-H23 = experiment: Cytotoxicity against human NCI-H23 cells assessed as cellular growth at 10 uM by SRB assay
HOP-62 = experiment: Cytotoxicity against human HOP62 cells assessed as cellular growth at 10 uM by SRB assay
A549 = experiment: Cytotoxicity against human A549 cells assessed as cellular growth at 10 uM by SRB assay
K562 = experiment: Cytotoxicity against human K562 cells assessed as cellular growth at 10 uM by SRB assay
CCRF-CEM = experiment: Cytotoxicity against human CCRF-CEM cells assessed as cellular growth at 10 uM by SRB assay

| Compound | Activity (MDA-MB-468) | Activity (MCF7) | Activity (TK-10) | Activity (ACHN) | Activity (CAKI-1) | Activity [1] | Activity (OVCAR-3) | Activity (SNB-75) | Activity (SF-268) | Activity (SW-620) | Activity (HCT-15) | Activity (HCC 2998) | Activity (NCI-H522) | Activity (NCI-H460) | Activity (NCI-H226) | Activity (NCI-H23) | Activity (HOP-62) | Activity (A549) | Activity (K562) | Activity (CCRF-CEM) |
| --- | --- | --- | --- | --- | --- | --- | --- | --- | --- | --- | --- | --- | --- | --- | --- | --- | --- | --- | --- | --- |
| Clc1ccccc1Nc1nnc(-c2ccncc2)s1 | 110.42% | 96.02% | 110.92% | 104.09% | 90.5% | 101.59% | 109.8% | 105.58% | 104.7% | 91.55% | 112.25% | 106.44% | 98.62% | 99.69% | 100.58% | 102% | 117.96% | 94.98% | 101.4% | 95.96% |
| CC1(C)CC(=O)c2cc3c(N)c(C(=O)Nc4ccc(Cl)cc4)sc3nc2C1 | 109.5% | 102.6% | 95.21% | 116.88% | 134.14% | 113.97% | 111.21% | 113.88% | 124.88% | 108.54% | 107.55% | 116.11% | 95.83% | 108.61% | 108.39% | 104.98% | 108.35% | 97.61% | 107.2% | 97.21% |
| Clc1ccc(-c2nc(-c3cccs3)no2)cc1 | 3.37% | 36.78% | 109.61% | 96.33% | 102.58% | 106.94% | 103.69% | 81.53% | 105.52% | 105.71% | 47.45% | 32.91% | 92.03% | 110.35% | 100.24% | 92.82% | 97.84% | 94.07% | 101.77% | 78.29% |
| O=C(NCc1cccnc1)c1sc2cc([N+](=O)[O-])ccc2c1Cl | 106.53% | 92.75% | 122.07% | 106.03% | 85.26% | 95.58% | 100.57% | 91.37% | 99.64% | 96.99% | 97.65% | 104.9% | 97.09% | 106.27% | 97.25% | 97.31% | 97.3% | 91.87% | 93.09% | 100.08% |
| COc1cc(/C=c2/sc3nc4ccccc4n3c2=O)cc(I)c1O | 71.12% | 93.11% | 116.5% | 107.3% | 79.77% | 92.89% | 97.63% | 114.58% | 99.48% | 93.08% | 91.48% | 106.16% | 99.27% | 95.07% | 94.19% | 94.22% | 101.47% | 88.66% | 51.46% | 83.8% |
| Cc1ccc2c(c1)N/C(=C/C(=O)c1ccc(Cl)cc1)C(=O)O2 | 107.35% | 87.54% | 131.96% | 103.68% | 105.93% | 104% | 119.21% | 86.32% | 105.3% | 114.93% | 99.12% | 108.44% | 81.38% | 109.79% | 105.28% | 98.65% | 113.93% | 92.75% | 99.7% | 65.56% |
| O=C1N=C(c2ccccc2)S/C1=C\c1ccc2c(c1)OCO2 | 98.71% | 101.6% | 110.48% | 99.6% | 101.66% | 107.06% | 95.8% | 95.66% | 95.75% | 89.42% | 101.73% | 118.49% | 105.96% | 96.54% | 95.12% | 114.7% | 94.43% | 95.78% | 73.5% | 90.34% |
| Cc1ccc(S(=O)(=O)Oc2ccc(-c3cnc4ccccc4n3)cc2)cc1 | 107.13% | 98.34% | 98.17% | 102.63% | 92.87% | 101.39% | 115.17% | 117.79% | 118.59% | 103.63% | 93.92% | 102.2% | 93.02% | 97% | 99.19% | 96.23% | 114.36% | 95.53% | 84.2% | 96.08% |
